# Test results reported in patent US8618145B2, “Small molecular compounds capable of accelerating proliferation of stem cells and use thereof” (priority 2009, dated 2013).
# Tests used:
# Embryonic stem cell = test: embryonic stem cell proliferation, ATP method (CellTiter-Glo); format: cell-based; conditions: serum free medium, culturing 1 to 4 days, FIG. 1
# Method: (§1) Embryonic stem cell (obtained from oosperm according to the conventional method) is cultured in serum free medium (a conventional medium, such as DMEM/F12, αMEM, 1640, etc.). The experiments are divided into control group, FGF group, neural stem cells proliferation accelerator Ia group, FGF+neural stem cells proliferation accelerator Ia group. After culturing for 1 to 4 days, the kit CellTiter-Glo®Luminescent Cell Viability Assay (Promega) is used to detect cells proliferation by ATP method. The ATP method is performed in accordance with operational steps of the kit.
# Therefore, Ia accelerates the proliferation of embryonic stem cells.
# [1] = tested on: Human mesenchymal stem cells; test: human mesenchymal stem cell proliferation, MTT; format: cell-based; conditions: α-MEM+10% fetal bovine serum, 2 days, FIG. 3
# Method: (§2) Human (rat) mesenchymal stem cells (a cell line obtained according to conventional method) is prepared into a single cell suspension by using a medium (α-MEM+10% fetal bovine serum), and is seeded at 1×10^4/well on 96-well plate. The experiments are divided into medium control group; and medium+small molecular compound Ia group. After culturing for 2 days, MTT (5 mg/ml) 10 ul is added. After incubating for 4 hours, a 100 μl lysis solution (10% SDS, 0.1% NH4Cl) is added. The mixture is incubated overnight. The light absorption value is detected at 490 nm.
# [2] = tested on: rat mesenchymal stem cells; test: rat mesenchymal stem cell proliferation, MTT; format: cell-based; conditions: α-MEM+10% fetal bovine serum, 2 days, FIG. 4
# Method: as §2
# [3] = tested on: hippocampus cells of AD rat; test: HE staining of hippocampus cells in AD rat; format: in vivo; conditions: AD rat of Example 13, dosage-dependent, FIG. 6 and FIG. 7
# Method: The rats in Example 13 are perfused and their brains are taken. Rats are anesthetized with 10% chloral hydrate (0.3 ml/100 g). Heparin (200 ug/kg) is injected to the left ventricular, and the right atrial appendage is cut off. 40 ml physiological saline and then 300 ml 4% paraformaldehyde are perfused to the left ventricular to harden the brain. Brain taken: after breaking the neck, the skull is peeled to expose olfactory bulb, peeling it from olfactory bulb with a small curved scissor. After optic nerve is cut off, it is slowly peeled to naturally fall, the adhesion sites are cut off, and are placed into 4% paraformaldehyde solution overnight. It is dehydrated with gradient alcohol and is embedded in olefin, sectioned and floated.
# HE staining: dewaxing with dimethylbenzene twice, each for 3 min. Hydration: hydration with descending concentration gradient alcohol: 100%→95%→90%→80%→70%. Dehydration lasts for 2˜3 mins to remove dimethylbenzene during each gradient. Water washing: ethanol is removed. It is dipped into a hematoxylin solution for 5-10 mins, and washed with tap-water. It is dipped into a dilute hydrochloric acid-ethanol solution to carry out color separation for only a few seconds. It is washed with tap-water and dipped into dilute ammonia to make the cell nucleus blue for 3-5 mins. […] It is mounted with neutral resin, and observed by […].
# [4] = tested on: AD rat model (aggregated Aβ1-40 injected in hippocampus); test: pharmacodynamic evaluation in AD rat (Morris water maze); format: in vivo; conditions: tail vein injection, administration for 14 days, FIG. 5
# Method: Establishment of AD rat model: in the experiment, stereotaxic instrument and micro-injection pump are used to inject aggregated Aβ1-40 (5 ug/ul) 2 ul (0.4 ul/min, 5 min) to the dorsal blade of the dentate gyrus in the hippocampus of rat (3.0 mm behind anterior fontanelle, open at right 2.0 mm, subdural 3.2 mm, Incisor hook plane is 2.4 mm lower than the interaural line plane), the model is established after 2 weeks. […]
# Pharmacodynamic experiment (Morris water maze): the experimental apparatus is a rustless steel round pool with a height of 60 cm, and a diameter of 150 cm (both the bottom and wall of the pool are covered by black paster to facilitate the video camera for distinguishing the white rats in pool), the video camera is connected to a computer; the pool is divided into four quadrants, and a platform is placed in the middle of the first quadrant. […] The experimental rats enter water from four different positions, the video camera records the swimming paths of each experimental rats, and the experimental results are analyzed by image processing software. […] During the experiment, the time the rat taken from entering water to climbing onto the platform (i.e., escape latency) is recorded, and the rat is allowed to stay on the platform for 10 sec. […] The escape latency of the animals, times of rearing up, and spatial bias are recorded and compared.
# Human neural stem cells = test: human neural stem cell proliferation, MTT; format: cell-based; conditions: DMEM/F12+10% fetal bovine serum+EGF, bFGF, 4 days, FIG. 2
# Method: Human neural stem cells (provided according to conventional methods by Peking University Stem Cell Research Center) is prepared into a single cell suspension by using a medium (DMEM/F12+10% fetal bovine serum+20 ng/mIEGF, bFGF), and is seeded at 2×10^4/well on 96-well plate. The experiments are divided into medium control group (a group without adding a medicine); medium+small molecular compound Ia group (a group with a medicine added). After culturing for 4 days, MTT (5 mg/ml) 10 ul is added. After incubating for 4 hours, a 100 μl lysis solution (10% SDS, 0.1% NH4Cl) is added. The mixture is incubated overnight. The light absorption value is detected at 490 nm.
# The experimental results are shown in FIG. 2, the height of the histogram represents absorbance, which is proportional to the number of cells (which has the same vertical coordinate in the MTT method, and is not explained one by one).
# Rat neural stem cells = test: rat neural stem cell proliferation, ATP method; format: cell-based; conditions: serum free medium; for proliferation rate of neural stem cells in rat: rat adult neural stem cells
# Method: as §1
# Rat neural stem cells are cultured in serum free medium. The experiments are divided into control group, FGF group, small molecular compound Ia group, and FGF+small molecular compound Ia group. The detection is carried out by ATP method (see the method in Example 6). Small molecular compound Ib, Ic, Id, Ie, If, Ig also conduct said experiment.
SMILES,embryonic stem cell proliferation (chemiluminescence intensity) (Embryonic stem cell),human mesenchymal stem cell proliferation [1],rat mesenchymal stem cell proliferation [2],degeneration of hippocampus cells (HE staining) [3],ability of learning and memory (water maze) [4],human neural stem cell proliferation (absorbance at 490 nm) (Human neural stem cells),proliferation rate of neural stem cells in rat (Rat neural stem cells),effect on rat neural stem cell proliferation (in words) (Rat neural stem cells)
"NNC(=S)Nc1ccc(-c2nnc(S)o2)cc1 [Ia, 4-(4-(5-mercapto-1,3,4-oxadiazol-2-yl)phenyl) thiosemicarbazide]",significantly increased,accelerates human mesenchymal stem cell proliferation,accelerates rat mesenchymal stem cell proliferation,less seriously degenerated,improved ability of learning and memory,accelerates human neural stem cell proliferation,4.2,accelerate rat neural stem cell proliferation
"CSc1nnc(-c2ccc(NC(=S)NN)cc2)o1 [Ib, 4-(4-(5-(methylthio)-1,3,4-oxadiazol-2-yl)phenyl) thiosemicarbazide]",,,,,,,2,accelerate rat neural stem cell proliferation
"CNC(=S)Nc1ccc(-c2nnc(SC)o2)cc1 [Ic, 1-methyl-3-(4-(5-(methylthio)-1,3,4-oxadiazol-2-yl)phenyl)thiourea]",,,,,,,1.5,accelerate rat neural stem cell proliferation
"NNC(=O)Nc1ccc(-c2nnc(S)o2)cc1 [Id, 4-(4-(5-mercapto-1,3,4-oxadiazol-2-yl)phenyl) semicarbazide]",,,,,,,1.7,accelerate rat neural stem cell proliferation
S=C(NNc1ccc(Cl)cc1)Nc1ccc(-c2nnc(S)o2)cc1 [Ie],,,,,,,2.5,accelerate rat neural stem cell proliferation
COc1ccc(NNC(=S)Nc2ccc(-c3nnc(S)o3)cc2)cc1 [If],,,,,,,2.3,accelerate rat neural stem cell proliferation
"CNC(=S)Nc1ccc(-c2nnc(O)o2)cc1 [Ig, 1-methyl-3-(4-(5-oxo-4,5-dihydro-1,3,4-oxadiazol-2-yl)phenyl)thiourea]",,,,,,,2.4,accelerate rat neural stem cell proliferation
